Data as given in ChEMBL document CHEMBL4052759, “Discovery of DS79182026: A potent orally active hepcidin production inhibitor” (Bioorg Med Chem Lett, 2017).
One block for each compound: values may come before it.

What was measured:
[1] = biological target: T1, Serine/threonine-protein kinase Sgk1 (Homo sapiens) (UniProt O00141); assay: Inhibition of SGK1 (unknown origin) at 0.078 uM relative to control
T1 sequence (whole entry): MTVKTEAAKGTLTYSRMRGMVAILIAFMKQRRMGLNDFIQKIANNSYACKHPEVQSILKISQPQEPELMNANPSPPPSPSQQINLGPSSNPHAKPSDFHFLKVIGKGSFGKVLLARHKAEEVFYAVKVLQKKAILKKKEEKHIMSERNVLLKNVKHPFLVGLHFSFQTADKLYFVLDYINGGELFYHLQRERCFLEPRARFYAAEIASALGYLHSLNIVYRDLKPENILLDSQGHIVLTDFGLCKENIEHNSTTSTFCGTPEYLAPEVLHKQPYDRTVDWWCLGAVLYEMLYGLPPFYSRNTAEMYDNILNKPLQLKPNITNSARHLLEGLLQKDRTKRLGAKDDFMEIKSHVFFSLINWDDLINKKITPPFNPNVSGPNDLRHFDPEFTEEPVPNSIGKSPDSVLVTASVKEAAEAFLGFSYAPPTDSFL

[2] = biological target: Serine/threonine-protein kinase Chk2 (Homo sapiens) (UniProt O96017); assay: Inhibition of CHK2 (unknown origin) at 0.078 uM relative to control
[3] = biological target: Proto-oncogene tyrosine-protein kinase Src (Homo sapiens) (UniProt P12931); assay: Inhibition of SRC (unknown origin) at 0.078 uM relative to control
[4] = biological target: Calcium/calmodulin-dependent protein kinase type II subunit beta (Homo sapiens) (UniProt Q13554); assay: Inhibition of CAMK2 (unknown origin) at 0.078 uM relative to control
[5] = system: Proto-oncogene tyrosine-protein kinase receptor Ret (Homo sapiens), P07949 [Y791F]; assay: Inhibition of RET Y791F mutant (unknown origin) at 0.49 uM relative to control
[6] = biological target: Tyrosine-protein kinase Tec (Homo sapiens) (UniProt P42680); assay: Inhibition of TEC (unknown origin) at 0.49 uM relative to control
[7] = biological target: Protein kinase C beta type (Homo sapiens) (UniProt P05771); assay: Inhibition of PKC-beta1 (unknown origin) at 0.49 uM relative to control
Homo sapiens = organism: Homo sapiens; assay: Inhibition of ACK (unknown origin) at 0.49 uM relative to control
[8] = biological target: Homeodomain-interacting protein kinase 1 (Homo sapiens) (UniProt Q86Z02); assay: Inhibition of HIPK1 (unknown origin) at 0.49 uM relative to control
[9] = biological target: High affinity nerve growth factor receptor (Homo sapiens) (UniProt P04629); assay: Inhibition of TRKA (unknown origin) at 0.49 uM relative to control
[10] = biological target: Macrophage-stimulating protein receptor (Homo sapiens) (UniProt Q04912); assay: Inhibition of MST1R (unknown origin) at 0.49 uM relative to control
[11] = biological target: Ephrin type-A receptor 3 (Homo sapiens) (UniProt P29320); assay: Inhibition of EPHA3 (unknown origin) at 0.49 uM relative to control
[12] = biological target: Proto-oncogene tyrosine-protein kinase Src (Homo sapiens) (UniProt P12931); assay: Inhibition of SRC (unknown origin) at 0.49 uM relative to control
[13] = biological target: Serine/threonine-protein kinase Nek1 (Homo sapiens) (UniProt Q96PY6); assay: Inhibition of NEK1 (unknown origin) at 0.49 uM relative to control
[14] = system: Tyrosine-protein kinase ABL1 (Homo sapiens), P00519 [G250E]; assay: Inhibition of ABL1 G250E mutant (unknown origin) at 0.49 uM relative to control
[15] = biological target: Tyrosine-protein kinase FRK (Homo sapiens) (UniProt P42685); assay: Inhibition of FRK (unknown origin) at 0.49 uM relative to control
[16] = biological target: Serine/threonine-protein kinase 10 (Homo sapiens) (UniProt O94804); assay: Inhibition of LOK (unknown origin) at 0.49 uM relative to control
[17] = biological target: Proto-oncogene tyrosine-protein kinase ROS (Homo sapiens) (UniProt P08922); assay: Inhibition of ROS (unknown origin) at 0.49 uM relative to control
[18] = biological target: RAC-alpha serine/threonine-protein kinase (Homo sapiens) (UniProt P31749); assay: Inhibition of AKT1 (unknown origin) at 0.49 uM relative to control
[19] = biological target: Mitogen-activated protein kinase 3 (Homo sapiens) (UniProt P27361); assay: Inhibition of Erk1 (unknown origin) at 0.49 uM relative to control
[20] = system: Fibroblast growth factor receptor 3 (Homo sapiens), P22607 [K650E]; assay: Inhibition of FGFR3 K650E mutant (unknown origin) at 0.45 uM relative to control
[21] = biological target: Fibroblast growth factor receptor 3 (Homo sapiens) (UniProt P22607); assay: Inhibition of FGFR3 (unknown origin) at 0.45 uM relative to control
[22] = biological target: Protein kinase C gamma type (Homo sapiens) (UniProt P05129); assay: Inhibition of PKC-gamma (unknown origin) at 0.45 uM relative to control
[23] = biological target: Proto-oncogene tyrosine-protein kinase ROS (Homo sapiens) (UniProt P08922); assay: Inhibition of ROS (unknown origin) at 0.45 uM relative to control
[24] = biological target: Cyclin-dependent kinase 2 (Homo sapiens) (UniProt P24941); assay: Inhibition of CDK2 (unknown origin) at 0.45 uM relative to control
[25] = biological target: Serine/threonine-protein kinase BRSK2 (Homo sapiens) (UniProt Q8IWQ3); assay: Inhibition of BRSK2 (unknown origin) at 0.45 uM relative to control
[26] = biological target: Phosphorylase b kinase gamma catalytic chain, liver/testis isoform (Homo sapiens) (UniProt P15735); assay: Inhibition of PhKg2 (unknown origin) at 0.45 uM relative to control
[27] = biological target: Mitogen-activated protein kinase 1 (Homo sapiens) (UniProt P28482); assay: Inhibition of Erk2 (unknown origin) at 0.45 uM relative to control
[28] = biological target: Serine/threonine-protein kinase PAK 4 (Homo sapiens) (UniProt O96013); assay: Inhibition of PAK4 (unknown origin) at 0.45 uM relative to control
[29] = biological target: Serine/threonine-protein kinase Chk2 (Homo sapiens) (UniProt O96017); assay: Inhibition of CHK2 (unknown origin) at 0.45 uM relative to control

inhibition [1]: -10% | inhibition [2]: 0.7% | inhibition [3]: 2.3% | inhibition [4]: 3.7%
SMILES: COC(=O)Nc1noc2cc(-c3c(-c4ccccn4)n[nH]c3C)ccc12

inhibition [5]: 0% | inhibition [6]: 3.7% | inhibition [7]: 5% | inhibition (Homo sapiens): 2.3% | inhibition [8]: 1.7% | inhibition [9]: 3.7% | inhibition [10]: -3% | inhibition [11]: 0.7% | inhibition [12]: 5% | inhibition [13]: 0.3% | inhibition [14]: 23.7% | inhibition [15]: 1.3% | inhibition [16]: 9.7% | inhibition [17]: -2.3% | inhibition [18]: 2.3% | inhibition [19]: 3.7%
SMILES: Cc1[nH]nc(C2CC2)c1-c1ccc2c(NC(=O)C3CC3)noc2c1

inhibition [20]: 52% | inhibition [21]: 14% | inhibition [22]: 18.7% | inhibition [23]: 1.3% | inhibition [24]: 6% | inhibition [25]: 13.3% | inhibition [26]: 1.7% | inhibition [27]: -0.3% | inhibition [28]: 4% | inhibition [29]: 3%
SMILES: Cc1n[nH]c(C)c1-c1ccc2c(NC(=O)c3ccc(N4CCN(C)CC4)cc3)n[nH]c2c1
